This is an account of results in ChEMBL document CHEMBL4706545, “Antiproliferative effect of mitochondria-targeting allobetulin 1,2,3-triazolium salt derivatives and their mechanism of inducing apoptosis of cancer cells” (Eur J Med Chem, 2020).

The source made the active and inactive calls. The rule behind the calls is not given here.

Assay [1] relates to ECa-109 cell line. As to the kind of experiment: Induction of ROS-mediated apoptosis in human ECa-109 cells assessed as viable cells at 2 uM incubated for 48 hrs by annexin V-PE and 7-AAD staining based flow cytometry analysis (reference value: 92.7 %). Format: functional. Conditions: read-out: Activity. In general terms: A flow cytometer gives signals particle by particle.
For assay [2], the system named is ECa-109 cell line. As to the kind of experiment: Induction of ROS-mediated apoptosis in human ECa-109 cells assessed as early apoptotic cells at 4 uM incubated for 48 hrs by annexin V-PE and 7-AAD staining based flow cytometry analysis (reference value: 2.70 %). Format: functional.
The subject of assay [3] is ECa-109 cell line. As to the kind of experiment: Induction of ROS-mediated apoptosis in human ECa-109 cells assessed as early apoptotic cells at 2 uM incubated for 48 hrs in presence of NAC by annexin V-PE and 7-AAD staining based flow cytometry analysis (reference value: 1.90 %). Format: functional.
The subject of assay [4] is ECa-109 cell line. As to the kind of experiment: Induction of ROS-mediated apoptosis in human ECa-109 cells assessed as necrotic cells at 2 uM incubated for 48 hrs in presence of NAC by annexin V-PE and 7-AAD staining based flow cytometry analysis (reference value: 1.09 %). Type of assay: functional.
Assay [5] has as its system ECa-109 cell line. As to the kind of experiment: Induction of cell cycle arrest in human ECa-109 cells assessed as accumulation in G0/G1 phase at 4 uM incubated for 48 hrs by PI staining based flow cytometry analysis (reference value: 52.28 %). Type of assay: functional.
Assay [6] has as its system ECa-109 cell line. As to the kind of experiment: Induction of ROS-mediated apoptosis in human ECa-109 cells assessed as late apoptotic cells at 1 uM incubated for 48 hrs by annexin V-PE and 7-AAD staining based flow cytometry analysis (reference value: 3.89 %). Format: functional.
The test system of assay [7] is ECa-109 cell line. As to the kind of experiment: Induction of cell cycle arrest in human ECa-109 cells assessed as accumulation in G0/G1 phase at 1 uM incubated for 48 hrs by PI staining based flow cytometry analysis (reference value: 52.28 %). Type of assay: functional.
Assay [8] relates to ECa-109 cell line. As to the kind of experiment: Induction of apoptosis in human ECa-109 cells assessed as early apoptotic cells at 2 uM incubated for 48 hrs by annexin-V-FITC and PI staining based fluorescence microscopic analysis (reference value: 0.971 %). Type of assay: functional.
In assay [9] the test system is ECa-109 cell line. As to the kind of experiment: Induction of apoptosis in human ECa-109 cells assessed as decrease in caspase-9 incubated for 48 hrs by Western blot analysis. Conditions: dose 1-4 µM. Type of assay: functional, cell-based. For orientation: In western blotting, separated proteins are transferred to a membrane and probed.
Assay [10] has as its system ECa-109 cell line. As to the kind of experiment: Induction of apoptosis in human ECa-109 cells assessed as concentrated chromatin at 1 to 4 uM incubated for 48 hrs by Hoechst staining based fluorescence microscopic analysis. Type of assay: functional, cell-based. Conditions: dose 1-4 µM.
In assay [11] the test system is ECa-109 cell line. As to the kind of experiment: Induction of ROS-mediated apoptosis in human ECa-109 cells assessed as necrotic cells at 1 uM incubated for 48 hrs by annexin V-PE and 7-AAD staining based flow cytometry analysis (reference value: 0.729 %). Type of assay: functional.
The subject of assay [12] is ECa-109 cell line. As to the kind of experiment: Induction of ROS-mediated apoptosis in human ECa-109 cells assessed as late apoptotic cells at 4 uM incubated for 48 hrs in presence of NAC by annexin V-PE and 7-AAD staining based flow cytometry analysis (reference value: 2.98 %). Format: functional.
For assay [13], the system named is SGC-7901. As to the kind of experiment: Induction of ROS-mediated apoptosis in human SGC-7901 cells assessed as early apoptotic cells at 4 uM incubated for 48 hrs in presence of NAC by annexin V-PE and 7-AAD staining based flow cytometry analysis (reference value: 1.15 %). Type of assay: functional.
Assay [14] has as its system SGC-7901. As to the kind of experiment: Induction of ROS-mediated apoptosis in human SGC-7901 cells assessed as late apoptotic cells at 1 uM incubated for 48 hrs in presence of NAC by annexin V-PE and 7-AAD staining based flow cytometry analysis (reference value: 3.45 %). Format: functional.
Assay [15] relates to SGC-7901. As to the kind of experiment: Induction of apoptosis in human SGC-7901 cells assessed as necrotic cells at 1 uM incubated for 48 hrs by annexin-V-FITC and PI staining based fluorescence microscopic analysis (reference value: 1.03 %). Type of assay: functional.
The test system of assay [16] is SGC-7901. As to the kind of experiment: Induction of apoptosis in human SGC-7901 cells assessed as decrease in caspase-8 incubated for 48 hrs by Western blot analysis. Format: functional, cell-based. Conditions: dose 1-4 µM.
Assay [17] concerns SGC-7901. As to the kind of experiment: Induction of apoptosis in human SGC-7901 cells assessed as decrease in caspase-3 incubated for 48 hrs by Western blot analysis. Format: functional, cell-based. Conditions: dose 1-4 µM.
The subject of assay [18] is SGC-7901. As to the kind of experiment: Induction of cell cycle arrest in human SGC-7901 cells assessed as accumulation in G0/G1 phase at 1 uM incubated for 48 hrs by PI staining based flow cytometry analysis (reference value: 57.39 %). Type of assay: functional.
Assay [19] relates to SGC-7901. As to the kind of experiment: Induction of apoptosis in human SGC-7901 cells assessed as necrotic cells at 2 uM incubated for 48 hrs by annexin-V-FITC and PI staining based fluorescence microscopic analysis (reference value: 1.03 %). Format: functional.
In assay [20] the test system is SGC-7901. As to the kind of experiment: Induction of ROS-mediated apoptosis in human SGC-7901 cells assessed as early apoptotic cells at 1 uM incubated for 48 hrs in presence of NAC by annexin V-PE and 7-AAD staining based flow cytometry analysis (reference value: 1.15 %). Type of assay: functional.
In assay [21] the test system is SGC-7901. As to the kind of experiment: Induction of ROS-mediated apoptosis in human SGC-7901 cells assessed as early apoptotic cells at 1 uM incubated for 48 hrs by annexin V-PE and 7-AAD staining based flow cytometry analysis (reference value: 1.89 %). Type of assay: functional.
For assay [22], the system named is SGC-7901. As to the kind of experiment: Induction of apoptosis in human SGC-7901 cells assessed as viable cells at 4 uM incubated for 48 hrs by annexin-V-FITC and PI staining based fluorescence microscopic analysis (reference value: 93.8 %). Conditions: read-out: Activity. Format: functional.
Assay [23] deals with SGC-7901. As to the kind of experiment: Induction of ROS-mediated apoptosis in human SGC-7901 cells assessed as early apoptotic cells at 2 uM incubated for 48 hrs in presence of NAC by annexin V-PE and 7-AAD staining based flow cytometry analysis (reference value: 1.15 %). Format: functional.
Assay [24] relates to SGC-7901. As to the kind of experiment: Induction of apoptosis in human SGC-7901 cells assessed as late apoptotic cells at 2 uM incubated for 48 hrs by annexin-V-FITC and PI staining based fluorescence microscopic analysis (reference value: 3.87 %). Type of assay: functional.
The test system of assay [25] is SGC-7901. As to the kind of experiment: Induction of ROS-mediated apoptosis in human SGC-7901 cells assessed as necrotic cells at 1 uM incubated for 48 hrs in presence of NAC by annexin V-PE and 7-AAD staining based flow cytometry analysis (reference value: 0.623 %). Type of assay: functional.
Assay [26] concerns SGC-7901. As to the kind of experiment: Induction of apoptosis in human SGC-7901 cells assessed as viable cells at 1 uM incubated for 48 hrs by annexin-V-FITC and PI staining based fluorescence microscopic analysis (reference value: 93.8 %). Format: functional. Conditions: read-out: Activity.
The test system of assay [27] is SGC-7901. As to the kind of experiment: Induction of apoptosis in human SGC-7901 cells assessed as upregulation of Bax incubated for 48 hrs by Western blot analysis. Type of assay: functional, cell-based. Conditions: dose 1-4 µM.
Assay [28] deals with SGC-7901. As to the kind of experiment: Induction of apoptosis in human SGC-7901 cells assessed as decrease in caspase-9 incubated for 48 hrs by Western blot analysis. Type of assay: functional, cell-based. Conditions: dose 1-4 µM.
Assay [29] concerns SGC-7901. As to the kind of experiment: Induction of apoptosis in human SGC-7901 cells assessed as late apoptotic cells at 4 uM incubated for 48 hrs by annexin-V-FITC and PI staining based fluorescence microscopic analysis (reference value: 3.87 %). Format: functional.
The subject of assay [30] is SGC-7901. As to the kind of experiment: Induction of ROS-mediated apoptosis in human SGC-7901 cells assessed as late apoptotic cells at 2 uM incubated for 48 hrs in presence of NAC by annexin V-PE and 7-AAD staining based flow cytometry analysis (reference value: 3.45 %). Format: functional.
The test system of assay [31] is SGC-7901. As to the kind of experiment: Induction of ROS-mediated apoptosis in human SGC-7901 cells assessed as early apoptotic cells at 4 uM incubated for 48 hrs by annexin V-PE and 7-AAD staining based flow cytometry analysis (reference value: 1.89 %). Format: functional.

In the case of `COc1ccccc1Cn1n[n+](C)c2c1C(C)(C)[C@@H]1CC[C@]3(C)[C@H](CC[C@@H]4[C@H]5[C@H]6OC[C@@]5(CCC6(C)C)CC[C@]43C)[C@@]1(C)C2.[I-]`, in the assay on ECa-109 cell line [1], the viability at 2 µM is 55%. In addition, the Activity in the assay on ECa-109 cell line [2] turned out to be 2%; in the assay with ECa-109 cell line [3], 10.1%; in the assay with ECa-109 cell line [4], 5.48%; in the assay on ECa-109 cell line [5], 33.47%; with ECa-109 cell line [6] it was 18.6%; in the assay with ECa-109 cell line [7], 54.16%. Further, the Activity is 20.5% with ECa-109 cell line [8], “Dose-dependent effect” with ECa-109 cell line [9], 2.92% with ECa-109 cell line [11] and 78.9% in the assay with ECa-109 cell line [12]. The outcome in the assay with ECa-109 cell line [10] was Active.
As to `C[n+]1nn(Cc2c(F)cccc2Cl)c2c1C[C@]1(C)[C@H]3CC[C@@H]4[C@H]5[C@H]6OC[C@@]5(CCC6(C)C)CC[C@@]4(C)[C@]3(C)CC[C@H]1C2(C)C.[I-]`, the Activity in the assay with SGC-7901 [13] is 4.28%; in the assay with SGC-7901 [14] it was 4.96%; in the assay with SGC-7901 [15], 1.56%; with SGC-7901 [16], “Dose-dependent effect”; with SGC-7901 [17], “Dose-dependent effect”; in the assay on SGC-7901 [18], 80.42%. In addition, the Activity came out at 1.56% with SGC-7901 [19]; 6.13% in the assay with SGC-7901 [20]; 13.7% with SGC-7901 [21]; 19.5% with SGC-7901 [23]; 8.46% with SGC-7901 [24]; 1.21% in the assay with SGC-7901 [25]. The Activity entry with SGC-7901 [27] was “Dose-dependent effect”; in the assay on SGC-7901 [28], “Dose-dependent effect”; in the assay on SGC-7901 [29], 97.3%; with SGC-7901 [30], 8.6%; with SGC-7901 [31], 0.199%. The viability at 4 µM in the assay with SGC-7901 [22] came to 0.494%. Further, in the assay on SGC-7901 [26], the viability at 1 µM worked out at 83%.
